Reference: PMC8151276, “An Integrated Approach toward NanoBRET Tracers for Analysis of GPCR Ligand Engagement” (Molecules, 2021)
Values belong to the compound of their own block, whether it stands above or below them.

How the values were obtained:
F2RL3 = target: T1, F2RL3 (Homo sapiens, UniProt Q96RI0); test: NanoBRET screen HiBiT-F2RL3 in HEK293; format: binding
T1 construct: purchased Promega (in-house HiBiT-GPCR construct library, NanoBRET)
T1 sequence (Q96RI0 18-385): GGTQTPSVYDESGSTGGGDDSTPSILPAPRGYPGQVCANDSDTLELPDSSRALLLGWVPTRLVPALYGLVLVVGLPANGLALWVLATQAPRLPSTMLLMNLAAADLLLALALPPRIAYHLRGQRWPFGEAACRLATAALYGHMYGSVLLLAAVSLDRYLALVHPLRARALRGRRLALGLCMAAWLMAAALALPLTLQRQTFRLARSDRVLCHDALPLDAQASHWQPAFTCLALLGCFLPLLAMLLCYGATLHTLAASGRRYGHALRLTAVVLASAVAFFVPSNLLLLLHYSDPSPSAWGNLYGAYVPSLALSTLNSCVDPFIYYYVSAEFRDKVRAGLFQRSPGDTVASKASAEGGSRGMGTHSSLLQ
Experimental: (§1) Each tracer candidate was screened across the entire library of HiBiT-GPCR constructs using NanoBRET as the detection modality. As depicted in Figure 4A, the specificity of interactions was evaluated through decrease in BRET due to competitive displacement of a bound tracer by excess parental compound. Each tracer was analyzed for binding to each HiBiT-GPCR fusion in the absence and in the presence of competing parental compound. Briefly, HEK293 cells were transfected with HiBiT-GPCR constructs diluted into promoterless DNA to reduce expression and maximize translocation to the cell surface. Each tracer candidate was then screened at concentrations of 1 μM and 0.1 μM across cells expressing these fusions. Cells were treated for 1.5 h with tracer either alone or in the presence of 20 μM competing parental compound (i.e., control). BRET was measured upon addition of purified LgBiT and subsequent complementation with HiBiT genetically fused to a GPCR. The specificity of interactions was assessed through a decrease in BRET signal due to competitive displacement of the bound tracer. To further gauge the robustness of these interactions, the fold response over the control (i.e., BRETtracer/BRETcontrol) was calculated. We chose a 1.5-fold response, which translates to ≥7-fold signal over noise as the minimal threshold required to score an interaction as positive. […]. Below we highlight the screening results obtained for our exemplary fluorescent tracers based on Clozapine, Amitriptyline and AZD1283.
(§2) HiBiT-GPCR DNA constructs were diluted in 10 mM Tris pH 8 to a final concentration of 0.01 μg/μL, arrayed in 96-well plates and stored at −20 °C. For transfection, HEK293 cells were suspended in Opti-MEM (without phenol red) supplemented with 2% fetal bovine serum (Seradigm) and 100 units/mL penicillin–streptomycin (Gibco) at a final concentration of 220,000 cells/mL and dispensed into white 96-well plates at 90 μL/well. Subsequent transfections and screens were carried using an Agilent Bravo Automated Liquid Handling Platform. First, the 96-well HiBiT DNA arrays were diluted 25-fold in Opti-MEM (without serum or phenol red) to a final concentration of 0.0004 μg/μL and 20 μL of the diluted DNAs were transferred into new 96-well plates. Next, promoterless carrier DNA (1 μg/μL) was diluted 25-fold (0.04 μg/μL) and then dispensed into the diluted arrays at 20 μL/well. Following brief mixing, Viafect transfection reagent (Promega) diluted 16-fold into Opti-MEM was dispensed into the plates at 40 μL/well. After mixing by pipetting, plates were incubated for 10 min on the pipetting station deck. The DNA-transfection reagent complexes were then added to plates containing cells. To facilitate the screen, 10 μL of DNA-transfection reagent complexes were added in duplicates to the top 4 and bottom 4 rows, resulting in two identical 48-well arrays per plate. Plates with transfected cells were incubated for 18–20 h at 37 °C/5% CO2. A screen of each tracer across the entire library using two different concentrations requires duplicate plates of transfected cells. Depending on the number of tracers being screened, transfections can be scaled up using the same ratios. The next day, for each tracer, four 20× screening solutions in tracer dilution buffer (Promega) were prepared: two duplicates at final concentration of 20 μM and two duplicates at a final concentration of 2 μM. A competing unmodified compound was added to one of each duplicate at a final concentration of 400 μM. The four resulting solutions were diluted 4-fold in Opti-MEM without serum or phenol red to generate 5× solutions (5 µM and 0.5 µM tracer +/− 100 μM competing compound). To screen the library, a BioTek MultiFlo FX liquid dispenser was used to dispense 22.5 µL of tracer solution to the top 4 rows and 22.5 µL tracer + competing compound solution to the 4 bottom rows. Plates were briefly mixed on an orbital shaker and incubated for 1.5 h at room temperature. […]

CXCR2 = target: T2, CXCR2 (Homo sapiens, UniProt P25025); test: NanoBRET screen HiBiT-CXCR2 in HEK293; format: binding
T2 construct: purchased Promega (in-house HiBiT-GPCR construct library, NanoBRET)
T2 sequence (P25025 1-360): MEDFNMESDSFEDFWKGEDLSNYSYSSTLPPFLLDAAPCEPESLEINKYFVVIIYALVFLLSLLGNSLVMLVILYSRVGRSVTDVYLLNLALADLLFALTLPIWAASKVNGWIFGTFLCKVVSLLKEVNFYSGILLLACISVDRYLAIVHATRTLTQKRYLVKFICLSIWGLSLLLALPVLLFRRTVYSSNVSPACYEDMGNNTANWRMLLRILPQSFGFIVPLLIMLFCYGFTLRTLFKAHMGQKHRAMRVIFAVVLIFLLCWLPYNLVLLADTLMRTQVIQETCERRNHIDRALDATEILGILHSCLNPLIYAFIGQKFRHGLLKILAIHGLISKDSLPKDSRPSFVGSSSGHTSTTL
Experimental: as §1, §2

NanoBRET Fold Response (F2RL3; 0.1μM tracer): 0.98 | NanoBRET Fold Response (F2RL3; 1μM tracer): 0.86 | NanoBRET Fold Response (CXCR2; 0.1μM tracer): 0.97 | NanoBRET Fold Response (CXCR2; 1μM tracer): 0.98
SMILES: COc1ccc2c(n1)c(CCNC(C)=O)cn2CCNC(=O)CCc1ccc2n1[B-](F)(F)[N+]1=C(c3ccc[nH]3)C=CC1=C2 [Azamelatonin-1-NB590]

SMILES: O=C(CCc1ccc2n1[B-](F)(F)[N+]1=C(c3ccc[nH]3)C=CC1=C2)NCc1ccc(C(=O)NCCOCCOCCNCC(O)COc2cccc3ccccc23)cc1 (stereo not drawn) [Propranolol-3-NB590]
NanoBRET Fold Response (F2RL3; F2RL3, 0.1μM): 1.07 | NanoBRET Fold Response (F2RL3; F2RL3, 1μM): 1.00 | NanoBRET Fold Response (CXCR2; CXCR2, 0.1μM): 1.07 | NanoBRET Fold Response (CXCR2; CXCR2, 1μM): 1.03

NanoBRET Fold Response (F2RL3; F2RL3, 0.1μM tracer): 1.02 | NanoBRET Fold Response (F2RL3; F2RL3, 1μM tracer): 1.15 | NanoBRET Fold Response (CXCR2; CXCR2, 0.1μM tracer): 1.02 | NanoBRET Fold Response (CXCR2; CXCR2, 1μM tracer): 0.87
SMILES: O=C(CCOCCOCCOCCOCCNC(=O)CCc1ccc2n1[B-](F)(F)[N+]1=C(c3ccc[nH]3)C=CC1=C2)NCCCN1CCN(C2=Nc3cc(Cl)ccc3Nc3ccccc32)CC1 [Clozapine-a-2-NB590]
